# Measurements published in patent US9322049B2, “Activation and activators of SirT6” (CORNELL UNIVERSITY, priority 2009, dated 2016).
# Columns and labels:
# SirT1 = molecular target: T1, SirT1 (Homo sapiens, UniProt Q96EB6); test: SirT1 deacetylation, Km of H3 with and without ssDNA; format: biochemical; settings: 100 ng/μl ssDNA
# T1 sequence (Q96EB6 1-747): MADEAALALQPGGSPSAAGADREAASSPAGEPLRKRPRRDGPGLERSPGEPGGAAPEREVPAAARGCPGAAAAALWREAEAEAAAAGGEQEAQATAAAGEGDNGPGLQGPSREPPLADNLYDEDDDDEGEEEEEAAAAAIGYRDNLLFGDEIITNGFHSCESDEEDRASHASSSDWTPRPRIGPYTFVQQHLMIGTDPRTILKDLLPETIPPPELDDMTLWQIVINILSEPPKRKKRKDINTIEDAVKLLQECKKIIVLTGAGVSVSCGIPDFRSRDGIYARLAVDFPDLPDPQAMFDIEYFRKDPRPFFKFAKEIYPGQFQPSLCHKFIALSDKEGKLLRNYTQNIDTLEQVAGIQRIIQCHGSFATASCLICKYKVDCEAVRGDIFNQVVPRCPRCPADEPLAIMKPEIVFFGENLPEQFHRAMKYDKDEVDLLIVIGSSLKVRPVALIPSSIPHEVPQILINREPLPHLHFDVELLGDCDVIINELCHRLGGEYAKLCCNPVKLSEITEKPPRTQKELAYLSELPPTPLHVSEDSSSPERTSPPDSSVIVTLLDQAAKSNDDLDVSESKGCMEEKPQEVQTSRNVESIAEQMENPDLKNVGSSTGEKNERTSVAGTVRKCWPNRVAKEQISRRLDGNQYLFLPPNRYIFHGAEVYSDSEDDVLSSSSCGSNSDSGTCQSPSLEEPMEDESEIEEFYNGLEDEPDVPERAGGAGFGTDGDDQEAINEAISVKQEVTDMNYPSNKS
# Text: The quantified data were fit into Michaelis-Menten equation to get Km of H3.
# SirT6 = molecular target: T2, SirT6 (Homo sapiens, UniProt Q8N6T7); test: Determination of Kd of DNA for SirT6 activation by HPLC (Example 2); format: biochemical; settings: 800 μM NAD, 480 μM H3, 10 μM SirT6, 2 hours 37° C.; fit Activation (fold)=1+m*x/(Kd+x)
# T2 construct: The protein expression and purification were the same as the full length SIRT6 as described above; made in house; host or cells: E. coli BL21 Codon-plus RIPL
# Experimental: FIG. 5A depicts a schematic of DNA structure. […] After 2 hours incubation at 37° C., either the deacetylated H3 was separated from H3 in the reaction containing the digested calf thymus DNA or AADPR was separated from other components in the reaction containing ssDNA, the plasmid, or dsDNA.
# The plasmid pSTBlue was digested with BamHI and EcoRV and purified by […]™ III kit. […] The AADPR was separated by HPLC and the quantified data were fit into Michaelis-Menten equation to get Km of H3.
# In the enzymatic reaction, the following DNA was used.
# Calf thymus DNA (USB Corporation), which was digested with EcoRI and then purified using Spinprep Gel DNA Kit (Novagen);
# ssDNA (5′ […] 3′ (SEQ ID NO: 9), Integrated DNA Technologies);
# dsDNA (forward 5′ […] 3′ (SEQ ID NO: 10), reverse 5′ […] 3′ (SEQ ID NO: 11), Integrated DNA Technologies); and
# pSTBlue plasmid, which was amplified using DH5α cells and purified by WIZARD™ PLUS (Midiprep) DNA purification system (Promega).
# The precipitated proteins and other insolubles were removed by centrifugation at 15,000 rpm for 5 minutes. DNA in the supernatant was further removed by centrifugation at 15,000 rpm for 10 minutes using Microcon with 10 kDa cutoff (Millipore). In the experiment with the digested calf thymus DNA, the peptides were separated by a Waters Xterra RP-18 column using a gradient of 0-30% acetonitrile in 0.1% trifluoroacetic acid. […]
# T2 sequence (Q8N6T7 whole entry): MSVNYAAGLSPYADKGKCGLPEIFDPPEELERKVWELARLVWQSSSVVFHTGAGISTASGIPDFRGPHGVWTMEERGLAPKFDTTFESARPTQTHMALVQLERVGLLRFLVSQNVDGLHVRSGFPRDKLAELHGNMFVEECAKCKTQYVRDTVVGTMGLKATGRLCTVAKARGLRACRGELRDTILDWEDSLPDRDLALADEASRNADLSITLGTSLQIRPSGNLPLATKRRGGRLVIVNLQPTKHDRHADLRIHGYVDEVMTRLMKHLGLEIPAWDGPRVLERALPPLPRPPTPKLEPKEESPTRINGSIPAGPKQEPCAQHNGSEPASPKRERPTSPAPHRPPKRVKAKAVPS
substance,measurement,setting,value
"ssDNA: ssDNA 5′ GGGGATCCATGAAGATGAGCTTTGCGTTGACT 3′ (SEQ ID NO: 9), Integrated DNA Technologies (DNA, backbone and methylation of C not given here)",Deacetylation activity of SirT1,SirT1,not activated
same,Kd of DNA for activation of SirT6,SirT6,127.7 µg/mL
